What all share (experiment): NCI anticancer screen, dose series, 48 h
Assay [1] relates to OVCAR-3.
The subject of assay [2] is NCI-H460.
For assay [3], the system named is DU-145.
Assay [4] relates to NCI-H226.
Assay [5] relates to LOX IMVI.
In assay [6] the test system is HT-29.
Assay [7] has as its system SR.
Assay [8] has as its system Hs-578T.
The subject of assay [9] is SF-295.
The subject of assay [10] is MDA-N.
Assay [11] deals with UACC-257.
The subject of assay [12] is RPMI-8226.
Assay [13] relates to OVCAR-5.
Assay [14] concerns PC-3.
Assay [15] concerns A498.
Assay [16] has as its system UO-31.
Assay [17] concerns CCRF-CEM.
Assay [18] concerns SK-MEL-2.
The subject of assay [19] is HOP-62.
Assay [20] has as its system HCC 2998.

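In this assay, cells in 96-well plates receive the compound at five concentrations for 48 hours. Endpoints are linearly interpolated between the surrounding concentrations. GI50 is the concentration that inhibits growth by half.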 Activity calls are given as the source filed them. Rule as the data show it: active = GI50 up to about 1.1 µM and inactive = higher.

`CN(C)c1ccc(/C=C2\C[C@H]3[C@@H]4CCc5cc(O)ccc5[C@H]4CC[C@]3(C)C2=O)cc1`: the GI50 is > 100 µM (inactive) in assay [1]; > 100 µM (inactive) in [2]; > 100 µM (inactive) in assay [3]; 25.1 µM (inactive) in assay [4]; > 100 µM (inactive) in assay [5]; 38.3 µM (inactive) in assay [6]. In addition, the GI50 in [7] was > 100 µM (inactive); in assay [8] it was 10.5 µM (inactive); in assay [9], 32.6 µM (inactive); in assay [10], > 100 µM (inactive); in [11], > 100 µM (inactive); in assay [12] it was > 100 µM (inactive). Also, the GI50 in [13] was > 100 µM (inactive); in assay [14], > 100 µM (inactive); in assay [15] it was 98.2 µM (inactive); in [16] it was > 100 µM (inactive); in assay [17], > 100 µM (inactive); in [18] it was 35.6 µM (inactive). Further, the values for the GI50 in assay [19] and in assay [20] were 30.5 µM (inactive) and > 100 µM (inactive), respectively.

As to `NNc1nc2ccccc2s1`, the GI50 in assay [2] was > 100 µM (inactive); in assay [3], > 100 µM (inactive); in assay [4], > 100 µM (inactive); in assay [5], > 100 µM (inactive); in [6], > 100 µM (inactive); in assay [7], 53.2 µM (inactive). For the same molecule, the GI50 in assay [8] is > 100 µM (inactive); in assay [10], > 100 µM (inactive); in [11], > 100 µM (inactive); in assay [12], 72.8 µM (inactive); in [13], > 100 µM (inactive); in assay [14], > 100 µM (inactive). The GI50 in assay [15] is > 100 µM (inactive); in [16], > 100 µM (inactive); in assay [17], 35.1 µM (inactive); in assay [18], > 100 µM (inactive); in [20], > 100 µM (inactive).

On to `C1CCC(OC2CSC2)OC1` (centres undefined), for which the GI50 in assay [1], in assay [2], in assay [3], in assay [4], in [5] and in assay [6] was > 100 µM (inactive) throughout. The GI50 in assay [7], in [8], in [9], in assay [10], in [11] and in [14] was > 100 µM (inactive) in each case. The GI50 in [15], in [16], in assay [17] and in assay [20] was > 100 µM (inactive) in each case.

With `CC1CC(Br)C(=O)O1` (centres undefined), the GI50 in [1], in assay [2], in [3], in [5], in [6] and in [8] was > 100 µM (inactive) in each case. Moreover, the GI50 in [9] is > 100 µM (inactive); in [10], > 100 µM (inactive); in assay [11] it was > 100 µM (inactive); in assay [12], 38.6 µM (inactive); in assay [13], > 100 µM (inactive); in assay [14], > 100 µM (inactive). Besides, the GI50 in assay [15], in assay [16], in assay [17], in [18], in assay [19] and in assay [20] was > 100 µM (inactive) each time.

Turning to `CCc1cc(=O)n(/C(C)=C/c2ccccc2)n1C`, the GI50 in assay [1], in assay [2], in assay [3], in assay [4], in assay [5] and in assay [6] was > 100 µM (inactive) each time. Besides, the GI50 in [8], in [9], in [10], in [11], in [12] and in [13] was > 100 µM (inactive) each time. The GI50 in [14], in assay [16], in assay [17], in assay [18], in [19] and in [20] was > 100 µM (inactive) throughout.

Turning to `CCOC(=O)C(C)N1C(=O)c2ccccc2S1(=O)=O` (centres undefined), the GI50 in assay [1], in assay [2], in [4], in [5], in assay [6] and in [9] was > 100 µM (inactive) throughout. Besides, the GI50 in assay [11], in assay [12], in assay [13], in [15], in assay [16] and in [17] was > 100 µM (inactive) throughout. Also, the GI50 in assay [18], in assay [19] and in assay [20] was > 100 µM (inactive) throughout.

For the molecule `Cc1c2cnccc2c(C)c2c1c1ccccc1n2CCCCCCCl`, the GI50 in [1] is 49.7 µM (inactive); in assay [2], 29.4 µM (inactive); in assay [4] it was 22.5 µM (inactive); in assay [5], 30.4 µM (inactive); in [6], 29.6 µM (inactive); in assay [9], 48.9 µM (inactive). In addition, the GI50 in [11] was > 33.1 µM (inactive); in assay [12], 13.2 µM (inactive); in assay [13], > 46.2 µM (inactive); in [15] it was > 50 µM (inactive); in assay [16], > 47.5 µM (inactive); in assay [17], 32.7 µM (inactive). In addition, the GI50 in assay [18] was > 50 µM (inactive); in [19], > 50 µM (inactive); in assay [20], > 46.8 µM (inactive).

With `C#CC(C)(C)Oc1cc(OC)c2c(=O)c3ccccc3n(C)c2c1`, the GI50 is 13.5 µM (inactive) in [2]; 12.4 µM (inactive) in [3]; 16.6 µM (inactive) in [4]; 4.81 µM (inactive) in assay [6]; 2.83 µM (inactive) in assay [7]; 17.5 µM (inactive) in assay [8]. The GI50 is 19.5 µM (inactive) in assay [9]; 12.6 µM (inactive) in assay [10]; 10.9 µM (inactive) in assay [11]; 4.4 µM (inactive) in assay [12]; 31.8 µM (inactive) in [13]; 13.8 µM (inactive) in assay [14]. Further, the GI50 in assay [16] is 3.87 µM (inactive); in [17] it was 5.27 µM (inactive); in assay [18], 16.3 µM (inactive); in [19], 27 µM (inactive); in assay [20], 30.7 µM (inactive).

On to `CN(C)C(=O)OC1C(=O)N(C)c2ccc(Cl)cc2C2(c3ccccc3)N1C2(Cl)Cl` (centres undefined), for which the GI50 in assay [1] is 53.8 µM (inactive); in assay [2], > 100 µM (inactive); in assay [4], 38.7 µM (inactive); in [5], > 100 µM (inactive); in assay [6], > 100 µM (inactive); in assay [7], 49.7 µM (inactive). For the same molecule, the GI50 in assay [9] was 77.1 µM (inactive); in assay [11], 66.8 µM (inactive); in assay [12], 46.5 µM (inactive); in [13], > 100 µM (inactive); in assay [16], 49.2 µM (inactive); in [17], 75.2 µM (inactive). Also, the figures for the GI50 in assay [18], in [19] and in assay [20] were > 100 µM (inactive), 54.8 µM (inactive) and > 100 µM (inactive), respectively.

Consider `CCNc1nnc(-c2nsc3ccccc23)s1`, for which the GI50 in assay [1] is 17.8 µM (inactive); in assay [2] it was 33.2 µM (inactive); in assay [5], > 100 µM (inactive); in [6], 26.5 µM (inactive); in assay [7] it was > 100 µM (inactive); in [11], > 100 µM (inactive). The GI50 in assay [12] is 65.3 µM (inactive); in assay [13], > 100 µM (inactive); in assay [16], 24.8 µM (inactive); in assay [17], > 100 µM (inactive); in assay [18], > 100 µM (inactive); in [19], 33.7 µM (inactive). Further, the GI50 in assay [20] is 67.6 µM (inactive).

Consider `CCCCCCCC/C=C\CCCCCCCCCCCC(=O)O` [ERUCIC ACID], for which the GI50 in [1] was 17.8 µM (inactive); in [2], 7.48 µM (inactive); in assay [4] it was 52.4 µM (inactive); in assay [5], 29.4 µM (inactive); in [6], 43.8 µM (inactive); in [9] it was 35.3 µM (inactive). Further, the GI50 in [11] was 58.2 µM (inactive); in assay [12] it was 45.6 µM (inactive); in assay [13], 102 µM (inactive); in [15] it was 0.891 µM (active); in assay [16] it was 74 µM (inactive); in assay [17] it was 24.4 µM (inactive). In addition, the GI50 in [18] is 18 µM (inactive); in assay [19], 30.1 µM (inactive); in assay [20], 44.1 µM (inactive).

The record behind these values is ChEMBL document CHEMBL1201862, “PubChem BioAssay data set” (2004).
